Assay results taken from patent US20250064762A1, “A SUBSTITUTED AROMATIC DICARBONIC ACID AMIDE AS AN INHIBITOR OF THE FERROPTOSIS SUPPRESSOR PROTEIN-1 (FSP1)” (JULIUS-MAXIMILIANS-UNIVERSITÄT WÜRZBURG, priority 2021, published 2025).

Key:
Assay type in all cases: cell-based, human
[1] = tested on: GPX4-KO/FSP1-OE HT1080 cells; assay: Viability of FSP1-dependent GPX4-KO cells with serial dilutions of CPBA, no FINs; conditions: serial dilutions of CPBA, no FINs
Description: (§1) The following HT1080 fibrosarcoma cell lines were generated using CRISPR/Cas9 technology, as previously described (Doll et al., 2019): HT1080 GPX4-knockout (KO) cells (maintained in the presence of 100 μM α-tocopherol); HT1080 GPX4 knockout cells overexpressing FSP1 (GPX4-KO/FSP1-OE); GPX4-KO cells overexpressing FSP1 and re-expressing GPX4 (GPX4-KO/FSP1-OE/GPX4-OE); HT1080 FSP1-WT or FSP1-KO cells; and HT1080 FSP1-KO cells reconstituted with either FSP1-WT or FSP1-G2A. LOX-IMVI (BRAF V600E heterozygous human melanoma cells) expressing either the Venus mock vector or FSP1-Venus (Doll et al., 2019) were grown in RPMI-1640 supplemented with 10% FCS, 2 mM L-glutamine and Pen/Strep.
Next, we tested the effect of CPBA on ferroptotic cell death in GPX4-deficient HT1080 cells whose survival depends on the expression of FSP1 in order to suppress ferroptosis in the absence of GPX4. GPX4 knockout cells overexpressing FSP1 (GPX4-KO/FSP1-OE), or GPX4-KO cells overexpressing FSP1 and re-expressing GPX4 (GPX4-KO/FSP1-OE/GPX4-OE) were incubated with serial dilutions of CPBA. Note that no ferroptosis inducers (FINs) were added. Protein expression was confirmed by Western Blot as described above (see FIG. 11).

HT1080 cells [2] = assay: Lipid droplet staining with BODIPY 493/503; conditions: CPBA 100 μM; T863 10 μM and PF-06424439 5 μM; 16 h
Description: HT1080 cells were seeded on glass coverslips (15,000 cells per well of 12-well plate) in complete DMEM, and incubated for 16 h with 100 μM CPBA or with 0.1% of the DMSO solvent control, in the absence or presence of inhibitors of DGAT1 and DGAT2 (10 μM T863/iDGAT1; 5 μM PF-06424439/iDGAT2). Cells were fixed with 4% para-formaldehyde, lipid droplets were stained with the neutral lipid droplet stain BODIPY 493/503 (2 μM, 30 min), and nuclei were counterstained with 4′,6-diamidino-2-phenylindole (DAPI). Cells were mounted with Immu-Mount (Fisher Scientific), and imaged by fluorescence microscopy on a THUNDER imager (THUNDER Imager Live Cell & 3D Cell Culture & 3D Assay system, Leica DMI8; Leica Microsystems), using a 63× objective.
We next investigated the impact of CPBA on triglyceride levels and ferroptosis sensitivity by first imaging lipid droplets with the neutral lipid stain BODIPY 493/503.
The diglyceride acyltransferase isoforms 1 and 2 (DGAT1, DGAT2) are required to catalyze the formation of triglycerides from diacylglycerol and acyl-CoA.

HT1080 cells [3] = assay: Western blot of ferroptosis regulators GPX4, ACSL4 and FSP1; conditions: 100 μM CPBA; 16 h; liproxstatin-1 100 nM
Description: Cultured cells were lysed in 50 mM Tris, pH 7.5; 150 mM NaCl; 1% (v/v) Triton X-100; 0.5% (w/v) sodium deoxycholate; 0.1% (w/v) sodium dodecyl sulfate; 5 μg/mL aprotinin, 1 μg/mL leupeptin, 1 μg/mL pepstatin, and 1 mM 4-(2-aminoethyl)benzenesulfonyl fluoride (Pefabloc). Protein concentrations were determined using the Micro BCA Protein Assay Kit (Thermo Fisher Scientific). Proteins were separated by SDS-PAGE, transferred to nitrocellulose membranes by semidry-blotting, and incubated with the indicated antibodies.
Western blots were quantified using the public domain NIH Image program (developed at the U.S. National Institutes of Health, http://rsb.info.nih.gov/nih-image/). Statistical analysis was performed using GraphPad Prism version 7.05 or 9.1.2 (GraphPad, San Diego, CA, USA).
HT1080 cells were cultured in the presence of liproxstatin-1 (100 nM), and incubated for 16 h with the solvent control DMSO (0.1%), RSL3 (1 μM), FIN56 (10 μM), or BSO (100 μM) in the presence of either 0.1% DMSO (−) or 100 μM CPBA (+). Cells were lysed and probed with the indicated antibodies as described above. […] Quantification of relative intensity of Western Blot bands was performed as described above (see FIG. 7).

[4] = tested on: HT1080 GPX4-knockout (KO) cells; assay: Viability of GPX4-knockout cells after α-tocopherol wash-out; conditions: 100 μM CPBA; 48-120 h after α-tocopherol wash-out
Description: as §1
In order to study the effect of CPBA-induced sensitization to ferroptosis in the absence of the ferroptosis suppressor GPX4, we generated HT1080 GPX4-knockout (KO) cells using CRISPR/Cas9 technology as described above. Lack of GPX4 expression in GPX4-KO cell lines was confirmed by Western Blot as described above (see FIG. 11). […] Cell viability was assessed at 48 h, 72 h, 96 h and 120 h using AquaBluer.

SMILES: O=C(Nc1ccccc1C(=O)O)c1ccc(Oc2ccc(C(=O)Nc3ccccc3C(=O)O)cc2)cc1 [CPBA, 2-[[4-[4-[(2-carboxyphenyl)carbamoyl]phenoxy]benzoyl]amino]-benzoic acid]
- cell death of GPX4-KO, FSP1-dependent cells [1]: die in a CPBA concentration-dependent manner
- lipid droplets (HT1080 cells [2]): triggered the accumulation of lipid droplets in HT1080 cells
- expression of GPX4, ACSL4 and FSP1 (HT1080 cells [3]): not affected by the presence of CPBA
- ferroptosis in the absence of GPX4 [4]: accelerates ferroptosis in the absence of GPX4
